Tests used:
[1] = test system: Csf1r^MeriCreMer; BRAF^V600E; Rosa26^LSL-YFP mice
Description: Mice. […] Genotyping was performed according to protocols described previously for Csf1r^iCre Csf1r^MeriCreMer, CD11^Cre and BRAF^LSL-V600E mice. Cre recombination in Csf1r^MeriCreMer; Rosa26^LSL-YFP; BRAF^LSL-V600E embryos was induced by single injection at E8.5 of 37.5 mg per kg (body weight) of 4-hydroxytamoxifen (OH-TAM, Sigma) into pregnant females. OH-TAM was supplemented with 18.75 mg per kg (body weight) progesterone (Sigma) to counteract the mixed oestrogen agonist effects of tamoxifen, which can result in fetal abortions. Embryonic development was estimated considering the day of vaginal plug formation as 0.5 dpc. […] BRAF^WT and BRAF^VE male and female littermates were assigned randomly into the control or treated group. Scoring of mice was performed blinded and at least weekly by assessing hindlimb reflexes and other behavioral phenotypes such as axial rolling. The investigators were not blinded to allocation during experiments and outcome assessment.
Footprint analysis. Mice were given two trials to run down a runway before the experiment. Mouse forepaws and hindpaws were painted with red and blue ink, respectively. Mice were then allowed to run down a runway lined with white paper. At least four steps from the middle portion of each run were measured for (1) overlap between forepaw and hindpaw placement, (2) stride length, (3) front-base width (the distance between the right and left forelimb strides), and (4) hind-base width (the distance between the right and left hindlimb strides). Mean values were used for graphs and statistical analyses.
As a readout, hind limb clasping reflexes were examined every week and footprint assays were performed as described above before treatment and every 4 weeks during treatment.
To determine the potential effects of BRAF^V600E macrophage clones in adult tissues, a large cohort (n=155) of BRAF^VE mice and littermate controls were analyzed.

YFP+ microglia = assay: Protein-level expression of inflammatory and adhesion markers in YFP+ microglia and spinal cord (flow cytometry, immunostaining, Bioplex); type: in vivo, mouse; settings: BRAF^VE mice, following PLX4720 treatment
Description: Preparation of cell suspensions, flow cytometry and cell sorting. Pregnant females were killed by exposure to CO2. Embryos were removed from the uterus, washed in 4° C. phosphate-buffered saline (PBS, Invitrogen) and dissected under a Leica M80 microscope. For blood phenotyping of adult mice, mice were anaesthetized and blood was collected by cardiac puncture. Bone marrow was collected by flushing one leg with 5 ml RPMI (Invitrogen). For flow cytometry experiments, organs were incubated in PBS containing 1 mg/ml collagenase D (Roche), 100 U/ml DNase I (Sigma), 2.4 mg/ml of dispase (Invitrogen) and 3% FCS (Invitrogen) at 37° C. for 30 min prior to mechanical disruption. For embryonic tissue incubation time at 37° C. was reduced to 20 min. For cell sorting, tissues were digested for 30 min at RT in PBS containing 2 mg/ml of collagenase D (Roche), 200 U/ml DNase I (Sigma), 4.8 mg/ml of dispase (Invitrogen), 3% FCS (Invitrogen) and 1 uM of flavopiridol (Sigma) followed by mechanical disruption under a 100 um filter. Cell suspensions were centrifuged at 320 g for 7 min, resuspended in FACS buffer (PBS, 0.5% BSA and 2 mm EDTA) containing purified anti-CD16/32 (1:100 dilution) and 5% normal mouse, 5% normal rat and 5% normal rabbit serum and incubated for 15 min at 4° C. […] For FMO (fluorescence minus one), brain cell suspensions from BRAF^WT and BRAF^VE mice were mixed prior to staining. […]

CCCS(=O)(=O)Nc1ccc(F)c(C(=O)c2c[nH]c3ncc(Cl)cc23)c1F [PLX4720]
onset of neurologic disease (cumulative incidence of the ataxic phenotype) ([1]; PLX4720-impregnated chow 417 mg/kg from 3 months of age, preliminary, small group): delays but does not totally prevent the onset of neurologic disease
disease progression ([1]; ad libitum PLX4720 diet started at one or three months of age): mitigated disease progression in both cases
BRAF^VE mice alive ([1]; by 9 months of age, PLX4720 diet): 80%
average clinical score ([1]; by 9 months of age, PLX4720 diet, score scale 1-4): 2
course of the neurological disease and mortality ([1]; treatment of adult mice with BRAF^V600E mosaicism): slows the course of the neurological disease and reduces its mortality
expression of Dectin-1 (Clec7a), LFA-1 (CD11a), VLA-4 (CD49d), the Pdgf receptor, Il1b, and Il17a at the protein level (YFP+ microglia): decrease
